# Reference: article PMC7523345 (Investigational new drugs, 2018)
# What was measured:
# [1] = test system: Deltex1; experiment: Deltex1 expression in peripheral blood; assay type: in vivo, human; details: 4 mg BIW
# [2] = test system: Hes1; experiment: Hes1 expression in peripheral blood; assay type: in vivo, human; details: after 2 weeks of dosing at 1.2 mg QD and 1.5 mg QD
# [3] = clinical; parameters: species or system human; details: in vivo
smiles,measurement,setting,value
Cc1cccc2c1NC(=O)[C@@H](NC(=O)[C@H](CCC(F)(F)F)[C@H](CCC(F)(F)F)C(N)=O)N=C2c1cccc(F)c1 [BMS-986115],Inhibition of geometric mean relative expression of Deltex1,[1],> 50%
same,Peak inhibition of geometric mean relative expression of Hes1,[2],> 80%
same,half-life,[3]; human,17.2 to 28 h
same,median accumulation ratio (AUCtau ratio of Day 15/Day 1),"[3]; human, 0.3 mg",2.64
same,median accumulation ratio (AUCtau ratio of Day 15/Day 1),"[3]; human, 0.6 mg",3.9
same,median accumulation ratio (AUCtau ratio of Day 15/Day 1),"[3]; human, 1.2 mg",3.66
same,median accumulation ratio (AUCtau ratio of Day 15/Day 1),"[3]; human, 1.5 mg",2.33
same,Accumulation ratio (AUCtau ratio of Day 16/Day 1),"[3]; human, 2 mg",2.47
same,median accumulation ratio (AUCtau ratio of Day 15/Day 1),"[3]; human, 2 mg",2.19
same,Accumulation ratio (AUCtau ratio of Day 16/Day 1),"[3]; human, 4 mg",3.01
same,Accumulation ratio (AUCtau ratio of Day 16/Day 1),"[3]; human, 8 mg",2.77
same,"Exposure, dose relation",[3],dose related increase
